Here are results for eight compounds from patent publication US6162826A, “Genipin derivative having anti hepatitis B virus activity” (priority 1996, dated 2000).

Where two headings read alike, the source gives them in different places.

In data set [1] the test system is HBV replication. The note with it: therapeutic agent for hepatitis B; cited from earlier work.
The conditions of data set [2]: cited from earlier work.
Data set [3] can be described thus: Cytotoxicity test (neutral red dye uptake). Type of data set: cell-based. The note with it: human, 2.2.15 cells, A510, 2.2.15 cell, cells treated as in Biological Example 1, read-out: IC50 (cytotoxicity). How it is done:
Further, the present inventors have performed cytotoxicity test using the neutral red dye uptake method to determine that the anti viral effect of the compound of formula (I) […] its general influence on cell growth. As a result, it was identified that the toxicity of the compound of formula (I) is much less than that of ddC.
Cytotoxicity test was carried out in order to determine whether the anti viral effect of the compound according to the present invention is due to the general influence on cell growth or not. In the present experiment, neutral red dye uptake method was used. This is a standard method widely utilized for examining cell survival, by which the variety of relations between viruses such as HSV or HIV and host organism can be understood.
Cytotoxicity test was performed on a 96-well tissue culture plate. Cells were cultured and treated with test compounds in the same manner as Biological Example 1, and the experiments at 4-kind concentrations were repeated threetimes, respectively. Since the relative toxicity can be determined from the uptake level of neutral red dye, quantitative analysis was carried out using the absorbance of internalized dye at 510 nm (A510).
Inhibitory effect of the compound of formula (I) on HBV replication in 2.2.15 cell culture, cytotoxicity, and SI (Selectivity Index, IC50 /ED50)

Data set [4] relates to HBV replication. Nature of the data set: Inhibitory effect on HBV replication in 2.2.15 cell culture. Format: cell-based, hepatitis B virus. To be noted: for EC50: Hepatitis B virus, 216 h, read-out: ED50 (inhibitory effect on HBV replication); for SI (Selectivity Index, IC50/ED50): cytotoxicity IC50 / HBV ED50, 2.2.15 cell culture. An excerpt: Inhibitory effect on HBV replication was examined by the use of 2.2.15. cell. 2.2.15. cell line (see, Sells et al., Journal of Virology, 62, 2836-2844, 1988) is a hepatoma cell infected by hepatitis B virus and is a representative standard cell which accurately standardizes all the essential viral characteristics induced by a chronic HBV infection. That is, 2.2.15. cell has some merits such that DNA pattern is stable, replicated virus exists in high level, virus-specific RNA replicate and protein are present in an appropriate size and pattern, the penetrated HBV virion is excreted in high titer, etc. Therefore, it has been recognized as a very suitable cell line which can be used when the anti viral activity of any compound on HBV is evaluated (see, Korba and Milman, Antiviral Research, 15, p217-228, 1991).
First, the present inventors cultured 2.2.15. cell and treated the cell with the novel compound according to the present invention. Then, extraction of DNA and RNA, gel electrophoresis, and hybridization analysis of HBV DNA were carried out to identify the inhibitory activity of the compound of the present invention on HBV replication. Herein, untreated cell was used as a control and ddC (dideoxy cytidine) widely known as a therapeutic agent for hepatitis was used as a comparative compound. As a result, it could be seen that the genipin derivative according to the present invention has an excellent inhibitory effect on replication like the known ddC.
Test for identifying the anti HBV effect of the compound of the present invention was carried out according to a known assay method (see, Korba and Milman, Antiviral Res., 15, 217, 1991). The assay procedure is briefly described in the following.
2.2.15. cell was cultured and preserved in RPM 11640 culture medium containing 5% fetal bovine serum(FBS), 2 mM glutamine and 50 μg/ml gentamicin sulfate. Resistance to G418 of the cell culture and degree of Mycoplasma contamination were examined according to conventional methods.
Cells (1×10^4 /cm^2) were inoculated into a multi-well tissue culture plate, confluently cultured for 7 days, and then kept for 2 or 3 days in confluent condition to stabilize the HBV DNA level. Then, culture medium was replaced 24 hours before cells were exposed to test compound. During the treatment of 9 days, culture medium was replaced and then test compound was added to the fresh culture medium at intervals of 24 hours. Culture medium was collected immediately before the first introduction of test compound, and after 3, 6, 9 days, respectively, and stored at -70° C. before HBV DNA analysis. Then, cytolysis was carried out to analyze the intracellular HBV DNA.
To analyze the extracellular HBV DNA, 0.2 ml of culture medium was incubated in 1M NaOH/10×SSC (1×SSC=0.15M NaCl/0.015M sodium citrate, pH 7.2) for 20 minutes at 25° C. and then immediately applied to a nitrocellulose membrane presoaked in 20×SSC using a slot blot apparatus. The sample was washed twice with 0.5 ml of 1M Tris/2M NaCl (pH 7.2) and once with 0.5 ml of 20×SSC to neutralize, and then it was washed again with 2×SSC and heated at 80° C. for one hour under vacuum. Generally, the cells which have been cultured and preserved in a dish having a diameter of 10 cm are dissolved in 6 ml of lysis buffer, and the […] is prepared according to the method of Korba et al., 1991.
10 μg/lane of cellular DNA sample was digested with restriction enzyme Hind III. Then, the digested sample was applied to 1% agarose gel electrophoresis and transferred to a nitrocellulose membrane.
3.2 kb HBV DNA fragment obtained by EcoR 1-digestion and purification was labeled with [^32 P]dCTP using nick translation method. This labeled fragment was used as a hybridization probe. Conditions for hybridization and post-washing were controlled by referring to the method of Korba et al., 1991 and HBV nucleic acid content among test sample was determined by Ambis beta scanner. […]

Setting [5] is: 2.2.15 cell culture, treatment of 9 days.

Turning to `COC(=O)C1=CO[C@@H](O)[C@@H]2C(CO)=CC[C@H]12` [genipin], the “inhibition of HBV replication (in words)” value in the data set with HBV replication [1] is on record as “inhibit the HBV replication”. In data set [2], the “in vivo activities (in words)” value was “liver-protection, inhibition of biosynthesis of RNA and protein, detoxification as well as antiviral activity”.

With `COC(=O)C1=CO[C@@H](OC(=O)c2ccncc2)[C@@H]2C(COC(=O)c3ccncc3)=CC[C@H]12` [Compound 11, Methyl (1S,4aS,7aS)-1-isonicotinoyloxy-7-isonicotinoyloxymethyl-1,4a,5,7a-tetrahydrocyclopenta[c]pyran4-carboxylate], the CC50 in data set [3] was above 200 µM. Moreover, the EC50 with HBV replication [4] (setting [5]) came to 30 µM. The “SI (Selectivity Index, IC50/ED50)” value in the data set with HBV replication [4] was above 6.7.

`COC(=O)C1=CO[C@@H](OCc2ccccc2)[C@@H]2C(C=O)=CC[C@H]12` [Compound 13, Methyl (1R,4aS,7aS)-1-benzyloxy-7-formyl-1,4a,5,7a-tetrahydrocyclopenta[c]pyran-4-carboxylate]: in data set [3], the CC50 was 50 µM. Moreover, in the data set on HBV replication [4] (setting [5]), the EC50 turned out to be 20 µM. Moreover, in the data set with HBV replication [4], the “SI (Selectivity Index, IC50/ED50)” value worked out at 2.5.

As for `CO[C@@H]1OC=C(C=O)[C@H]2CC=C(C=O)[C@@H]12` [Compound 1, (1R,4aS,7aS)-4,7-diformyl-1-metboxy-1,4a,5,7a-tetrahydrocyclopenta-[c]pyran], the CC50 in data set [3] was 120 µM. Further, the EC50 with HBV replication [4] (setting [5]) is above 500 µM.

Take `OCC1=C[C@@H](O)[C@@H]2C=CO[C@@H](O[C@@H]3O[C@H](CO)[C@@H](O)[C@H](O)[C@H]3O)[C@H]12` [aucubin]: in the data set with HBV replication [1], the “inhibition of HBV replication (in words)” value is listed as “inhibit the HBV replication”. Moreover, the “in vivo activities (in words)” value in data set [2] was “liver-protection, inhibition of biosynthesis of RNA and protein, detoxification as well as antiviral activity”.

For `Nc1ccn([C@H]2CC[C@@H](CO)O2)c(=O)n1` [ddC, dideoxy cytidine, reference compound], the CC50 in data set [3] is above 30 µM. Further, in the data set with HBV replication [4], the EC50 is 15 µM and the “SI (Selectivity Index, IC50/ED50)” value is reported as above 2.0.

In the case of `COc1ccc(COCC2=CO[C@@H](OC)[C@@H]3C(C=NO)=CC[C@H]23)cc1` [Compound 2, (1R,4aS,7aS)-7-hydroxyiminomethyl-1-methoxy-4-(p-methoxybenzyloxymethyl)-1,4a,5,7a-tetrahydrocyclopenta[c]pyran], the CC50 in data set [3] came to 90 µM. Further, the EC50 in the data set on HBV replication [4] (setting [5]) turned out to be 30 µM. The “SI (Selectivity Index, IC50/ED50)” value with HBV replication [4] is reported as 3.0.

On to `COC(=O)C1=CO[C@@H](OCc2ccccc2)[C@@H]2C(C=NO)=CC[C@H]12` [Compound 14, Methyl (1R,4aS,7aS)-1-benzyloxy-7-hydroxyiminomethyl-1,4a,5,7a-tetrahydrocyclopenta[c]pyran-4-carboxylate], for which the CC50 in data set [3] worked out at 130 µM. Further, in the data set on HBV replication [4] (setting [5]), the EC50 was 15 µM. For the same compound, the “SI (Selectivity Index, IC50/ED50)” value in the data set on HBV replication [4] is on record as 8.7.
